Reference: ChEMBL document CHEMBL1201862, “PubChem BioAssay data set” (2004)
Calls of active or inactive are those of the source.

What was measured:
[1] = molecular target: Prothrombin (Homo sapiens, UniProt P00734); experiment: Thrombin 1536 HTS Dose Response Confirmation. [Related pubchem assays: 1046 (Thrombin 1536 HTS; hits were confirmed in this assay)]; type: functional
[2] = system: HEK293; experiment: inhibitors of LMP1-driven NF-kB reporter, dose response, cell-based, HEK293, luciferase, cherry-pick (AID 588343); type: functional; conditions: Homo sapiens
[3] = molecular target: Glucose-6-phosphate 1-dehydrogenase (Homo sapiens, UniProt P11413); experiment: human G6PD enzyme inhibitors, dose response, selectivity assay for P. falciparum G6PD inhibitor project, biochemical, fluorescence (AID 504792); type: functional
Glucose-6-phosphate 1-dehydrogenase, sequence (P11413 whole entry): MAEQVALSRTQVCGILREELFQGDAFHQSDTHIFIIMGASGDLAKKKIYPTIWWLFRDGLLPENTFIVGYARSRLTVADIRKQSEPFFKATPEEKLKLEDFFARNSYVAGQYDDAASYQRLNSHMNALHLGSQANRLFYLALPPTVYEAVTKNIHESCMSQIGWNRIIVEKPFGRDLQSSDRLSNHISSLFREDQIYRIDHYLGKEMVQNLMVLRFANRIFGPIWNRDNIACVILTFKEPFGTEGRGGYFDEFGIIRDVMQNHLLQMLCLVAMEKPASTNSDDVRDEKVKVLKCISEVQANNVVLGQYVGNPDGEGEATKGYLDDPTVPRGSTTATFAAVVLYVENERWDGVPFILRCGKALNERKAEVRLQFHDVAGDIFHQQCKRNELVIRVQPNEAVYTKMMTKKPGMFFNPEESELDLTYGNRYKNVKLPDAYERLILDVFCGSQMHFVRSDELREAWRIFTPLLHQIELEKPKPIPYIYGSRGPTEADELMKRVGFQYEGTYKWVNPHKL

[4] = molecular target: T1, Low molecular weight phosphotyrosine protein phosphatase (Homo sapiens, UniProt P24666); type: functional; conditions: read-out: IC50_Mean;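 note: Dose-response confirmation assay measuring inhibition of LMPTP enzyme activity by fluorescence intensity read-out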
T1 sequence (P24666 whole entry): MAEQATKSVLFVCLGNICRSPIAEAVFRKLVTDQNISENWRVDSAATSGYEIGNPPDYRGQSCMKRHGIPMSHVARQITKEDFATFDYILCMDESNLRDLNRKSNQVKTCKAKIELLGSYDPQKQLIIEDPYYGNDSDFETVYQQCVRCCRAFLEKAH

[5] = molecular target: T2, Heat shock factor protein 1 (Mus musculus, UniProt P38532); experiment: HSF1 potentiators in luciferase reporter cells, confirmation, cell-based, NIH3T3, luminescence, dose retest (AID 435004); type: functional;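 note: stress induced by proteasome inhibitor MG132 added 30 min after compound; luciferase reporter driven by HSF1 response element in NIH3T3 cells; actives raise luminescence as potentiators of the MG132 stress response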
T2 sequence (P38532 whole entry): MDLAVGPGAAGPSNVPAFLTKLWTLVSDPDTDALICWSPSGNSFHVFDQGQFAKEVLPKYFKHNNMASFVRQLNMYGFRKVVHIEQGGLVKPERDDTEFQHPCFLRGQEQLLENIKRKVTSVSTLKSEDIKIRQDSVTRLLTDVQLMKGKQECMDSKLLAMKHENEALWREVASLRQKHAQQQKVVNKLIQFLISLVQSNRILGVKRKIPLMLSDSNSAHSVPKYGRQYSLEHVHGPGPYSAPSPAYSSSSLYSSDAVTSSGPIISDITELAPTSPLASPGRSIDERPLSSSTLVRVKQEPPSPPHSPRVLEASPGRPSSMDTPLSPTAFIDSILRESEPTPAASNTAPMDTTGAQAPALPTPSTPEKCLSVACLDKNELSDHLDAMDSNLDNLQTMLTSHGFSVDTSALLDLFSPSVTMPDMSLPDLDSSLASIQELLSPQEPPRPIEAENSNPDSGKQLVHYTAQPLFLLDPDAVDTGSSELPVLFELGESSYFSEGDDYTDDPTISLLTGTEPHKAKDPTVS

[6] = THP-1 cell cytotoxicity, dose response, cytotoxicity control for Vif-APOBEC3G degradation inhibitor project, THP-1 cells (AID 1117359); type: functional; conditions: Human immunodeficiency virus 1, THP-1
[7] = ZM109 Env clade C HIV-1 fusion inhibitors, dose response, HeLa effector, CEM target cells, luciferase, cherry-pick (AID 652058); type: functional, cell-based
[8] = inhibitors of clade B AD8 Env fusion, dose response, cell-based, cherry-pick (AID 652062); type: functional;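 note: luciferase signal from cell-cell fusion driven by HIV-1 clade B AD8 Env; potency is for inhibitors of fusion seen as a drop in luminescence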
[9] = off-target signal loss in HeLa-CEM21 co-culture – HeLa F-luc CTL cells, cherry-picked, counter-screen for HIV-1 Env fusion inhibitor project, dose response (AID 652040); type: functional, cell-based;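 note: potency for signal decrease marking cytotoxic or nonspecific inhibition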
[10] = inhibitors of HIV Env-driven cell fusion, dose response, cherry-pick (AID 652057); type: functional, cell-based
[11] = molecular target: Mu-type opioid receptor (Homo sapiens, UniProt P35372); type: functional, cell-based;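 note: U2OS cells with beta-arrestin recruitment to OPRM1 by beta-gal complementation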
Mu-type opioid receptor, sequence (P35372 whole entry): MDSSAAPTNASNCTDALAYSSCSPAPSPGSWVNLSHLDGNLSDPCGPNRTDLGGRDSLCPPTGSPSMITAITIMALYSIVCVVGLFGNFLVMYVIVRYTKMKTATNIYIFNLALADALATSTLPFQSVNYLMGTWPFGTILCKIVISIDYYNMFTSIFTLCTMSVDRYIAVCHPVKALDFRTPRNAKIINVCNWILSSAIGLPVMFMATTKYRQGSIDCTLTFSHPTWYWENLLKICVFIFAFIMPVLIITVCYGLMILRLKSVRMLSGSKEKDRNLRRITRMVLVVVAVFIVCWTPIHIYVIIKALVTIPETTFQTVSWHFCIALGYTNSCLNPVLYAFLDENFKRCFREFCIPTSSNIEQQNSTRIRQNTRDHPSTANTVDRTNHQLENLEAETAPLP

[12] = molecular target: 5-hydroxytryptamine receptor 2A (Mus musculus, UniProt P35363); type: functional, cell-based;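 note: CHO-K1 cells with tagged receptor and beta-arrestin; agonist potency measured as compound-induced activation of the receptor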
5-hydroxytryptamine receptor 2A, sequence (P35363 whole entry): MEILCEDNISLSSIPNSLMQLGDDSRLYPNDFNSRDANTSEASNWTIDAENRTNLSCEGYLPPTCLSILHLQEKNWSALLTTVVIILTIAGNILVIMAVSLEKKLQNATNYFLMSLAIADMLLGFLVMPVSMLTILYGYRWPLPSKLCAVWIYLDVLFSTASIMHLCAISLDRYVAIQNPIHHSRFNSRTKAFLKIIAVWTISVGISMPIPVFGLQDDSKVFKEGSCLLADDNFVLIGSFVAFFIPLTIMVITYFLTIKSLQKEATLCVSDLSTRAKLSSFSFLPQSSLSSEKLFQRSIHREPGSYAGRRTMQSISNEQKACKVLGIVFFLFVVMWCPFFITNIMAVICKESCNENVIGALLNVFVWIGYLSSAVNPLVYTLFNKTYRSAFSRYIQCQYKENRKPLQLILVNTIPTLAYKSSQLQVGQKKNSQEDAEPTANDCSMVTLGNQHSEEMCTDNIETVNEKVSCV

[13] = cytotoxicity in OVCAR8 ovarian cancer cells, dose response, PAX8 project, cell-based, plate reader, dry powder samples (AID 743197); type: functional; conditions: OVCAR-8
[14] = molecular target: Paired box protein Pax-8 (Homo sapiens, UniProt Q06710); experiment: inhibitors of PAX8-driven TPO luciferase reporter, dose response, RMG-I cells, cherry-pick (AID 687027); type: functional, cell-based;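 note: luciferase reporter driven by Pax8 target thyroperoxidase promoter measured by SteadyGlo luminescence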
Paired box protein Pax-8, sequence (Q06710 whole entry): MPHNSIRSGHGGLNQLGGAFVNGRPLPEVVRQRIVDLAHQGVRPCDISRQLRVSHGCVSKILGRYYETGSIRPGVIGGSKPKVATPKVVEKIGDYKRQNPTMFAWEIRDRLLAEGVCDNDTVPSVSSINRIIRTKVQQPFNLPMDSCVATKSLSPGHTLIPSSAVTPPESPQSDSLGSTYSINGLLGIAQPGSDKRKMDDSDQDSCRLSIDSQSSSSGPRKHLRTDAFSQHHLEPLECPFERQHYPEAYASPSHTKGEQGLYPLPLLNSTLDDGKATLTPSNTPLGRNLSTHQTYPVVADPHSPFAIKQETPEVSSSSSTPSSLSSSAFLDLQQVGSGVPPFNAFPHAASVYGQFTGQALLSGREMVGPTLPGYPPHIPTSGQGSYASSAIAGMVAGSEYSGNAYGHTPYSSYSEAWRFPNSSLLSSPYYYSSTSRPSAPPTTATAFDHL

[15] = NIH:OVCAR-3 ovarian cancer cell cytotoxicity, dose response, PAX8 inhibitor project, plate reader, dry powder samples (AID 743044); type: functional, cell-based
[16] = IGROV1 ovarian cancer cell cytotoxicity, dose response, PAX8 inhibitor project, plate reader, dry powder samples (AID 743043); type: functional, cell-based; conditions: IGROV-1
[17] = molecular target: Cytochrome P450 3A4 (Homo sapiens, UniProt P08684);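 note: CYP3A4 tested as one member of a cytochrome P450 panel screen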
Cytochrome P450 3A4, sequence (P08684 whole entry): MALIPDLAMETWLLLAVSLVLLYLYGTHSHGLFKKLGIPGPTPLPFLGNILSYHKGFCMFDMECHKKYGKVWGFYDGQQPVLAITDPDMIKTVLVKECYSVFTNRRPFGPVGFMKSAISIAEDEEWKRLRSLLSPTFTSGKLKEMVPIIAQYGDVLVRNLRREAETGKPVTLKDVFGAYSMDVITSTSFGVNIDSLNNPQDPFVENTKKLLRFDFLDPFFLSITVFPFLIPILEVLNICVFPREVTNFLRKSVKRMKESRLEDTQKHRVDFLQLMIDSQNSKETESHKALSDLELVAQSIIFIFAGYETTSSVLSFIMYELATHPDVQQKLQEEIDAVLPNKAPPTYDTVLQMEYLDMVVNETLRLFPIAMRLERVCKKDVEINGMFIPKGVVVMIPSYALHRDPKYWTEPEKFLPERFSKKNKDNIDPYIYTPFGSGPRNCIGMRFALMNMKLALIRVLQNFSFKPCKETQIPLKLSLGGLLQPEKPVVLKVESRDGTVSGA

[18] = molecular target: Cytochrome P450 2C9 (Homo sapiens, UniProt P11712)
Cytochrome P450 2C9, sequence (P11712 whole entry): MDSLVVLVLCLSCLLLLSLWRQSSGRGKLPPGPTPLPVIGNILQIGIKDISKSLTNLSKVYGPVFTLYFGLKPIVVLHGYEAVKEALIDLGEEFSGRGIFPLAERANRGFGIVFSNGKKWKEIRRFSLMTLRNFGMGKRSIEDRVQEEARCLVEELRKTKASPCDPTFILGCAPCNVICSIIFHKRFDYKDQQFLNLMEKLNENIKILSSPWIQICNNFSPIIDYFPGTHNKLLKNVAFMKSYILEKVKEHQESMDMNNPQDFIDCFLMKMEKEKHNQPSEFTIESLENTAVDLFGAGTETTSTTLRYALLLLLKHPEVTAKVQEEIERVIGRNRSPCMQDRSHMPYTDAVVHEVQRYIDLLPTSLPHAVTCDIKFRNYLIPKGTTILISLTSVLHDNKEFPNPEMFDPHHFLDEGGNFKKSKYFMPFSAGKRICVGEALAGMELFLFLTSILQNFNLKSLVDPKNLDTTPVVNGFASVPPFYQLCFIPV

[19] = molecular target: T3, Small ubiquitin-related modifier 1 (Homo sapiens, UniProt P63165); experiment: inhibitors of SUMO1 peptide binding, dose response, biochemical, fluorescence polarization, uHTS hits (AID 624382); type: functional; conditions: read-out: IC50_Mean
T3 sequence (P63165 whole entry): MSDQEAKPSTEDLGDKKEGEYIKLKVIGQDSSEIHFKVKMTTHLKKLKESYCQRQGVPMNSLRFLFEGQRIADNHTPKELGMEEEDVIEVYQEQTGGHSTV

[20] = molecular target: T4, Rac GTPase-activating protein 1 (Homo sapiens, UniProt Q9H0H5); experiment: MgcRacGAP GTPase-activating activity inhibitors, confirmation, biochemical, ADP Hunter fluorescence, primary and confirmatory (AID 624330); type: functional
T4 sequence (Q9H0H5 whole entry): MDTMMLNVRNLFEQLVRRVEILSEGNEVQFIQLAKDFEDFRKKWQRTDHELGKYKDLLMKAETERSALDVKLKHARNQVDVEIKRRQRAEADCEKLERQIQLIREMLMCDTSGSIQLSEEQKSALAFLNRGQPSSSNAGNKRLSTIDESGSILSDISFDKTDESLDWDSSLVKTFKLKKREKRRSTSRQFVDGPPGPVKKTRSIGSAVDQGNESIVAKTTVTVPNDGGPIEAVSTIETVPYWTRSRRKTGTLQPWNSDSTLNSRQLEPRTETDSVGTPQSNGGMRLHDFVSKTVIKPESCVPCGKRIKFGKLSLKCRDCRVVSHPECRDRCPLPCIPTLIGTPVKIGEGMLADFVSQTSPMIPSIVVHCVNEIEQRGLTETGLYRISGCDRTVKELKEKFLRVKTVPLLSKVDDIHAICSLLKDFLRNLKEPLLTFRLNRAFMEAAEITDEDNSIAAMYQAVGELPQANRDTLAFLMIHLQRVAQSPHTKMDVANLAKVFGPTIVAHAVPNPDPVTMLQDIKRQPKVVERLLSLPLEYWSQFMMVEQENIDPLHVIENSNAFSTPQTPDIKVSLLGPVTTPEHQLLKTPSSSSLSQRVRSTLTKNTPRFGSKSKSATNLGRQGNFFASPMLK

[21] = microbe, parasite or virus in culture; type: functional; conditions: Mycobacterium tuberculosis
[22] = molecular target: T3, Small ubiquitin-related modifier 1; experiment: inhibitors of SUMO1 partner interactions, dose response, biochemical, FRET (AID 624383); type: functional; conditions: read-out: IC50_Mean
[23] = molecular target: T5, Ubiquitin-conjugating enzyme E2 N (Homo sapiens, UniProt P61088); type: functional;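 note: Dose-response confirmation in a TR-FRET assay detecting UBC13-driven polyubiquitin chain formation, inhibition measured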
T5 sequence (P61088 whole entry): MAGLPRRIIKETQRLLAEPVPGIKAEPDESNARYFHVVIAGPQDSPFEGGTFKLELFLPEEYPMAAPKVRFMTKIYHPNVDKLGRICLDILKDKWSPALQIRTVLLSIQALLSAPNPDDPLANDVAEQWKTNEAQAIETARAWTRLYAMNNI

CSc1nc2cc3c(cc2n1C(=O)c1ccc(C)cc1)OCCO3
IC50 [1]: 0.556 µM (active) | AC50 [2]: > 350 µM (inactive)

C#CCCc1cscc1/C=[N+](\[O-])c1ccc(C(=O)OCC)cc1
IC50 [3]: 29.7 µM (inactive)

CC(=Cc1ccccc1)C=C1SC(=S)N(CCCC(=O)Nc2ccc(C(=O)O)cc2)C1=O
IC50 [4]: 80 µM (inactive)

CCOC(=O)c1sc2nc(CC(=O)OC)nc(NCc3ccco3)c2c1C
EC50 [5]: 63.7 µM (active) | CC50 [6]: 32.7 µM (active)

COc1cccc(C(=O)Nc2nnc(S(=O)(=O)N(C)Cc3ccccc3)s2)c1
IC50 [3]: > 80 µM (inactive)

c1ccc2c(N3CCCCC3)ncnc2c1
AC50 [7]: 5.37 µM (active) | AC50 [8]: 53.9 µM (active) | AC50 [9]: 56.2 µM (active) | AC50 [10]: 31.5 µM (active)

CC(=O)N1CCc2cc(C(=O)CN3CCN(c4ccccn4)CC3)ccc21
EC50 [11]: 92.5 µM (inactive) | EC50 [12]: 0.257 µM (active)

C[C@H](CO)N1C[C@H](C)[C@@H](CN(C)Cc2ccc(Oc3ccccc3)cc2)Oc2ccc(NS(=O)(=O)c3ccc(Cl)cc3)cc2CC1=O
AC50 [13]: 62.6 µM (active) | AC50 [14]: 7.43 µM (active) | AC50 [15]: 68.7 µM (active) | AC50 [16]: 67.8 µM (active)

CCOC(=O)c1c(C)nc2sc3c(=O)n(-c4ccc(C(C)=O)cc4)nnc3c2c1-c1ccc(Cl)cc1
AC50 [17]: inconclusive | AC50 [18]: 2.82 µM (inconclusive)

OC1(c2ccc(F)cc2)CCN(Cc2nnnn2Cc2cccs2)CC1
IC50 [1]: > 50 µM (not active)

CCN(CC)S(=O)(=O)c1cc(NC(=O)C(=O)c2c(-c3ccccc3)cc3ccccn23)ccc1C
AC50 [7]: 24.9 µM (active) | AC50 [8]: 17.1 µM (active) | AC50 [9]: 9.48 µM (active) | AC50 [10]: 10.6 µM (active)

CCC(c1nnnn1-c1c(C)cccc1C)N1CCN(C/C=C/c2ccccc2)CC1 (centres undefined)
EC50 [11]: 92.6 µM (inactive) | EC50 [12]: 0.362 µM (active)

O=C(CN(Cc1ccccc1)S(=O)(=O)c1ccc(F)cc1)NCCC1=CCCCC1
AC50 [7]: 6.77 µM (active) | AC50 [8]: 38 µM (active) | AC50 [9]: 17.1 µM (active) | AC50 [10]: 2.55 µM (active)

C[C@@H]1CCCCO[C@@H](CN(C)Cc2ccc(C(F)(F)F)cc2)[C@H](C)CN([C@H](C)CO)C(=O)c2cc(NS(=O)(=O)c3ccc(F)cc3)ccc2O1
AC50 [13]: 40.3 µM (active) | AC50 [14]: 5.08 µM (active) | AC50 [15]: 25.2 µM (active) | AC50 [16]: 40 µM (active)

C=C1c2c(Cl)ccc(O)c2C(=O)C2=C(O)[C@]3(O)C(=O)C(C(N)=O)=C(O)[C@@H](N(C)C)[C@@H]3[C@@H](O)[C@H]12.O=C(O)c1cc(S(=O)(=O)O)ccc1O [MECLOCYCLINE SULFOSALICYLATE]
IC50 [19]: 8.79 µM (active) | IC50 [20]: 63 µM (active) | CC50 [21]: 16.4 µM (active) | IC50 [22]: 39.7 µM (inactive) | IC50 [23]: > 20 µM (inactive)
